Assay results published in patent US11001591B2, “TRAF 6 inhibitors” (HELMHOLTZ ZENTRUM MUENCHEN—DEUTSCHES FORSCHUNGSZENTRUM FÜR …, priority 2016, dated 2021).

Experiments:
hERG = biological target: T1, hERG (Homo sapiens, UniProt Q12809); assay: hERG predictor assay; format: in vitro ADME
T1 construct: Bienta/Enamine Ltd. (contract lab)
Procedure: All ADME (plasma stability, plasma protein binding, microsomal stability, Log D, Caco-2 assay, CYP450 inhibition and hERG predictor assay) as well as pharmacokinetic studies (Tmax, Cmax, AUC0-240 min, Mean Residence Time, Elimination half life, Elimination rate constant, Volume of Distribution and Clearance) of C25-140 (compound 3) were conducted by Bienta Enamine Biology Services of Bienta/Enamine Ltd.

[1] = system: human peripheral blood mononuclear cells (PBMCs); assay: Cytokine secretion of primary human PBMCs; format: cell-based
Procedure: For measurement of cytokine secretion, 2×10^5 Jurkat T-cells or primary CD4^+ T-cells or human PBMCs per sample were seeded, treated with compound for 6 hours and stimulated as indicated. 20 hours after stimulation, supernatants were harvested and analyzed with the IL-2, IL-1β and TNFα Ready-Set-Go! ELISA (2nd Generation) kits provided by Affymatrix eBioscience.
For isolation of peripheral blood mononuclear cells (PBMCs) from 50 mL human blood of three different donors, blood was mixed with 800 units of Heparin (Sigma-Aldrich) and centrifuged at 300×g for 10 minutes without brake. After removal of the plasma fraction, buffy coat was diluted in 2 volumes PBS and added on top of 15 ml Lymphoprep (STEMCELL technologies). After centrifugation at 160×g for 20 minutes at room temperature without brake, platelets were removed and the cell suspension was centrifuged again at 350 xg for 20 minutes without brake. Mononuclear cells from the intermediate layer were transferred to a new falcon and washed 3 times in PBS supplemented with 0.1% BSA and 2 mM EDTA. In the end, cells were resuspended in RPMI medium containing 10% FCS, 1% Penicillin/Streptomycin and 50 μM β-mercaptoethanol. Per sample, 2×10^5 cells were seeded and treated with compound for 6 hours. The cells were stimulated with either 1 μg/ml Lipopolysaccharide (LPS) or CD3/CD28 (1 μg hCD3 (IgG2A), 4 μg hCD28 (IgG1), 2 μg ant-IgG2A and 2 μg ant-IgG2A) or 20 ng/IL-1β. Supernatants for analysis of cytokine secretion were harvested 20 hours after stimulation.

IKK kinase activity = assay: IKK kinase assay in MEF cells; format: cell-based, mouse
Procedure: For MEF cells, 5.5×10^5 cells were seeded, then treated with compound for 6 hours and eventually stimulated with IL-1β or TNFα for 8 minutes. 1×10^6 Jurkat T-cells were treated with compound for 6 hours and finally stimulated with PMA (400 ng/ml) and lonomycin (600 ng/ml) for 8 minutes. After cell lysis in Co-IP lysis buffer (150 mM NaCl; 25 mM Hepes (pH 7.5); 0.2% NP-40; 1 mM Glycerol; 10 mM NaF; 8 mM β-Glycerophosphat; 1 mM DTT; 300 μM Sodium-vanadate; complete protease inhibitor), input samples were taken and the supernatant was then incubated with 6 μL IKKγ antibody FL-419 (Santa Cruz Biotechnology). Upon incubation with Protein-G-Sepharose beads (GE Healthcare), beads were washed in Co-IP wash buffer (150 mM NaCl; 25 mM Hepes (pH 7.5); 0.2% NP-40; 1 mM Glycerol) and transferred into kinase reaction buffer ([…] HEPES pH7.9; 10 mM MgCl2; 20 μM ATP; 20 mM β-Glycerophosphat; 200 μM Sodium-Vanadate; 1 mM DTT) supplemented with […] GST-IκBα (1-53) and 0.5 μL ^32P-γ-ATP. After 30 minutes incubation at 37° C., reaction was stopped and analyzed by autoradiography as well as Western Blot after separation on SDS-PAGE.

[2] = system: MEF, HepG2 and Jurkat cells; assay: Cell viability, CellTiter-Glo 2.0; format: cell-based
Procedure: For cell viability experiments using the CellTiter-Glo® 2.0 system (Promega), MEF cells (1.2×10^3 cells/well), HepG2 cells (4×10^3 cells/well) and Jurkat T-cells (5×10^3 cells/well) were seeded in 384 well plates. After 18 hours, cells were treated with compounds using the Sciclone G3 automation system. After 6 or 24 hours incubation, the luciferase measurement was performed according to the manufacturer's manual.

[3] = biological target: interaction of Ubc13 with Uev1a (Homo sapiens, UniProt P61088+Q13404); assay: Ubc13-Uev1a interaction; format: binding
Chain of interaction of Ubc13 with Uev1a (P61088 whole entry): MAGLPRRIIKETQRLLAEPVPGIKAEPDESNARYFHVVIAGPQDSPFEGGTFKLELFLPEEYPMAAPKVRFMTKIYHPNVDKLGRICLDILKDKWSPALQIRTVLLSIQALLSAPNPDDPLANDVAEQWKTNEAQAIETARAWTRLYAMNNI
Chain of interaction of Ubc13 with Uev1a (Q13404 whole entry): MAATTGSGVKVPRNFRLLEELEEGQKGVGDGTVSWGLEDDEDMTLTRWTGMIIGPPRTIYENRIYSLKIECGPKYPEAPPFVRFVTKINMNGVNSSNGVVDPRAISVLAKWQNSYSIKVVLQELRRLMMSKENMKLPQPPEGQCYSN

NF-κB = assay: EMSA NF-κB activation in Jurkat T-cells; format: cell-based, human; details: PMA/Ionomycin
Procedure: For compound treatment, MEF cells were seeded in 6 well plates at 1.2×10^5 cells/well the day before treatment. Jurkat T-cells were seeded directly before treatment at 2×10^5 cells/sample. Six hours after compound or DMSO treatment cells were stimulated as indicated. Thereby, MEF cells were left untreated or stimulated with recombinant mouse IL-1β (1 ng/mL) or TNFα (10 ng/mL) for 20 minutes. Jurkat T-cells were stimulated with Phorbol-12-myristat-13-acetet (PMA) (400 ng/mL) and lonomycin (600 ng/mL) for 30 minutes. Eventually, cells were lysed in high-salt lysis buffer (20 mM HEPES pH 7.9; 350 mM NaCl; 1 mM MgCl2; 0.5 mM EDTA; 0.1 mM EGTA; 20% Glycerol; 1% NP-40; 10 mM NaF; 8 mM β-Glycerophosphate; 1 mM DTT; 300 μM Sodium-vanadate; complete protease inhibitor) and analyzed in EMSA assays using H2K (NF-κB) or Oct-1 (loading control) probes.

[4] = system: Jurkat T-cells and U2OS cells; assay: Cell cycle assessment (propidium iodide); format: cell-based; details: 24 hours and 72 hours treatment
Procedure: For cell cycle staining, cells were seeded at 2×10^5 cells per sample and treated with compound or DMSO. After the indicated incubation time (24 or 72 hours), cells were fixed in 100% Ethanol and subsequently stained with the Propidium Iodide staining solution (0.1% Triton X-100; 20 μg/ml Propidium Iodide; 200 μg/ml RNAse A in PBS) for 40 min in the dark. The Propidium Iodide fluorescence was collected using the Attune Flow Cytometer (Thermo Fisher Scientific). Analysis was performed using the Single Cell analysis software FlowJo.

T1 sequence (Q12809 whole entry): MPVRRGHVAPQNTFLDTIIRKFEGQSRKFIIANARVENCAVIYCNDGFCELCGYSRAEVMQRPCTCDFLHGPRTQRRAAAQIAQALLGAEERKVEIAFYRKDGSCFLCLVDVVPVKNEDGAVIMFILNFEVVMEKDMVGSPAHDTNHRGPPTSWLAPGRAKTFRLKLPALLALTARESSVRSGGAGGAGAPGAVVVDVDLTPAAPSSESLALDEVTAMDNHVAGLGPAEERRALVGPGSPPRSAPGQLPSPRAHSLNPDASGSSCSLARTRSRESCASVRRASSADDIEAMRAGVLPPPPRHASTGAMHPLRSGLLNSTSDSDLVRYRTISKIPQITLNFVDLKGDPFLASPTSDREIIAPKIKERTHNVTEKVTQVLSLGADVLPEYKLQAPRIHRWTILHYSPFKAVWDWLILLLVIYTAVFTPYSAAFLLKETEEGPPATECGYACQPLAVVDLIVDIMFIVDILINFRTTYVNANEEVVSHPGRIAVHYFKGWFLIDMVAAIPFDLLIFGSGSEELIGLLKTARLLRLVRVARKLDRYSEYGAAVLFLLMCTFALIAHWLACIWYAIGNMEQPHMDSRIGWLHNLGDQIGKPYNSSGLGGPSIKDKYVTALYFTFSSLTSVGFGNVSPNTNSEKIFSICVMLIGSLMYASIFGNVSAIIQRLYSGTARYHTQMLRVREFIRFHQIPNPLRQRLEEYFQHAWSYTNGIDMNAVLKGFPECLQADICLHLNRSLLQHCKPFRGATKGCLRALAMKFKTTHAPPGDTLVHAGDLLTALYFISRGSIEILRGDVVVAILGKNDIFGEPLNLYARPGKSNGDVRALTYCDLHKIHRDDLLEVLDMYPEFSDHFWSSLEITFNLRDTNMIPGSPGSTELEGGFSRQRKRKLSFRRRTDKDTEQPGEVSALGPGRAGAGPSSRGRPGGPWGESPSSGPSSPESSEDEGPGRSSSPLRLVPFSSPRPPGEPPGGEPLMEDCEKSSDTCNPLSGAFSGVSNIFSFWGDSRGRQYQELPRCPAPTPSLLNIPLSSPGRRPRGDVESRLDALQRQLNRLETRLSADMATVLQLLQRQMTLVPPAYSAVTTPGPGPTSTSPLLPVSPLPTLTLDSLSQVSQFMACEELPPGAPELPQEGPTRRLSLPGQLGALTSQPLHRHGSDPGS

binding of Ubc13 to Uev1a [3]: did not affect | cell cycle progression [4]: not impaired
Structure (SMILES): Cc1nn(-c2ccc3nnc(C)n3n2)c(C)c1CCC(=O)N1CCC(Cc2ccccc2)CC1 [Compound 3, 1-(4-benzylpiperidin-1-yl)-3-(3,5-dimethyl-1-(3-methyl-[1,2,4]triazolo[4,3-b]pyridazin-6-yl)-1H-pyrazol-4-yl)propan-1-one]
hERG inhibition (hERG): does not very much inhibit hERG | secretion of IL-2 and TNFα ([1]; human PBMCs stimulated with CD3/CD28): decreased levels | secretion of IL-6 and TNFα ([1]; human PBMCs stimulated with IL-1β): attenuated | secretion of IL-1β and TNFα ([1]; human PBMCs stimulated with LPS): reduced levels | IKK kinase activity after IL-1β stimulation (IKK kinase activity): decreased | TNFα induced phosphorylation of IκBα (IKK kinase activity; TNFα): also affected | cell viability at highest dose ([2]; 100 μM, 24 hours): toxicity is noticeable | metabolic activity and cell viability ([2]; up to 50 μM, 24 hours incubation, MEF, HepG2, Jurkat): does not considerably affect | NF-κB activation (NF-κB): attenuated
